Test [1] concerns A. baumannii (Ab). Nature of the test: Broth microdilution minimum inhibitory concentration (MIC). Format: cell-based. The conditions noted are these: Acinetobacter baumannii, A. baumannii, read-out: Ab + bicarb MIC. The gist of the method: (§1)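 Following CLSI M07-A9 with minor changes, growth medium was cation-adjusted Mueller-Hinton broth, alone or supplemented with bicarbonate (6.25 or 25 mM) or heat-inactivated human serum up to 50%. Each compound was tested over eight two-fold dilutions against 5×10^4 CFU per well.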
For orientation: Dilution methods test growth across graded concentrations, often in twofold steps.

The subject of test [2] is P. aeruginosa (Pa). Described as above. Format: cell-based. Conditions: P. aeruginosa; for MIC: Pseudomonas aeruginosa, read-out: Pa MIC + bicarb. The gist of the method:
as §1

Test [3] concerns E. coli (Ec). The test is described as above. The conditions noted are these: Escherichia coli, E. coli, read-out: E. coli + bicarb MIC. In kind it is cell-based. The method in brief: as §1
Test [4] relates to S. aureus (Sa). The description is as above. Format: cell-based. The conditions noted are these: Staphylococcus aureus, S. aureus, read-out: Sa + bicarb MIC. The method in brief: as §1
Test [5] relates to E. faecalis (Ef). The test is described as above. In kind it is cell-based. The conditions noted are these: E. faecalis; for MIC: Enterococcus faecalis, read-out: Ef + bicarb MIC. The gist of the method:
as §1

Test [6] has as its system E. coli S30 extract (bacterial protein synthesis). Description: E. coli S30 extract coupled transcription-translation luciferase assay (inhibition of bacterial protein synthesis). In kind it is biochemical. The conditions noted are these: class by IC50 or % inhibition @ 1 μM, read-out: S30 IC50 (μM/% inhib.). The method in brief:
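Cell-free coupled transcription-translation in E. coli S30 circular-DNA extract, with pBESTluc plasmid as template and complete amino acid mix. Eight 2-fold compound dilutions were incubated with the extract 1 h at 37 °C, chilled, then luciferase luminescence was read. % inhibition was taken relative to no-inhibitor wells; no-DNA wells gave background.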

The target in test [7] is Rabbit Reticulocyte Lysate (eukaryotic protein synthesis). Description: Rabbit reticulocyte lysate luciferase assay (inhibition of eukaryotic protein synthesis). In kind it is biochemical. The conditions noted are these: class by IC50 or % inhibition @ 1 μM, read-out: Rabbit reticulocyte IC50 (μM/% inhib.). The gist of the method: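 Nuclease-treated rabbit reticulocyte lysate translating luciferase control RNA, with complete amino acids, was incubated at 30° C. for 90 minutes with 2-fold serial compound dilutions. Luminescence was measured after adding luciferase reagent. % inhibition was relative to water controls, with no-RNA wells as background.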

Where [8] appears, read: growth medium supplemented with sodium bicarbonate.
Setting [9] is: growth medium with sodium bicarbonate.

SMILES strings stand for the structures. Read-outs that look alike come from different tables or passages of the source.

As usually defined, the MIC is the lowest concentration that inhibits growth of the organism.

On to `CCN(C[C@H]1C[C@H](N)C1)C(C)Cc1ccc(-n2ccc(NC(=O)N3CCN(C(=O)C(C)(C)N)CC3)nc2=O)cc1` (some centres unmarked) [Compound 158], for which the minimum inhibitory concentration (MIC) in test [1] (setting [8]) is > 32 µg/mL; in test [2] (setting [8]), 8 to 32 µg/mL; in test [3] (setting [8]), < 8 µg/mL; in test [4] (setting [8]), < 8 µg/mL; in test [5] (setting [8]), < 8 µg/mL. For the same molecule, the IC50 in test [6] was < 0.5 µM; in test [7] it was > 1 µM.

Regarding `CC(Cc1ccc(-n2ccc(NC(=O)N3CCN(C(=O)C(C)(C)N)CC3)nc2=O)cc1)NC[C@H]1C[C@@H](N)C1` (some centres unmarked) [Compound 159], the MIC was > 32 µg/mL in test [1] (setting [8]); > 32 µg/mL in test [2] (setting [8]); < 8 µg/mL in test [3] (setting [8]); < 8 µg/mL in test [4] (setting [8]); 8 to 32 µg/mL in test [5] (setting [8]). Besides, the IC50 was < 0.5 µM in test [6] and > 1 µM in test [7].

Turning to `CC(Cc1ccc(-n2ccc(NC(=O)N3CCN(C(=O)C(C)(C)N)CC3)nc2=O)cc1)N(C)C[C@H]1C[C@@H](N)C1` (some centres unmarked) [Compound 160], the MIC in test [1] (setting [8]) was > 32 µg/mL; in test [2] (setting [8]) it was > 32 µg/mL; in test [3] (setting [8]), < 8 µg/mL; in test [4] (setting [8]), < 8 µg/mL; in test [5] (setting [8]) it was < 8 µg/mL. In addition, the IC50 in test [6] is < 0.5 µM; in test [7] it was > 1 µM.

Consider `CCN(C[C@H]1C[C@@H](N)C1)C(C)Cc1ccc(-n2ccc(NC(=O)N3CCN(C(=O)C(C)(C)N)CC3)nc2=O)cc1` (some centres unmarked) [Compound 161], for which the MIC was 8 to 32 µg/mL in test [1] (setting [8]); > 32 µg/mL in test [2] (setting [8]); < 8 µg/mL in test [3] (setting [8]); < 8 µg/mL in test [4] (setting [8]); < 8 µg/mL in test [5] (setting [8]). Further, the IC50 was < 0.5 µM in test [6] and > 1 µM in test [7].

On to `CC(Cc1ccc(-n2ccc(NC(=O)N3CCN(C(=O)C(C)(C)N)CC3)nc2=O)cc1)N[C@H]1CC[C@H](N)C1` (some centres unmarked) [Compound 162], for which the minimal inhibitory concentration (MIC) is > 32 µg/mL in test [1] (setting [8]); > 32 µg/mL in test [2] (setting [8]); < 8 µg/mL in test [3] (setting [8]); < 8 µg/mL in test [4] (setting [8]); 8 to 32 µg/mL in test [5] (setting [8]). Besides, the IC50 in test [6] is < 0.5 µM; in test [7], > 1 µM.

Take `CC(Cc1ccc(-n2ccc(NC(=O)N3CCN(C(=O)C(C)(C)N)CC3)nc2=O)cc1)N(C)[C@H]1CC[C@H](N)C1` (some centres unmarked) [Compound 163]: the minimal inhibitory concentration (MIC) was > 32 µg/mL in test [1] (setting [9]); > 32 µg/mL in test [2] (setting [9]); 8 to 32 µg/mL in test [3] (setting [9]); 8 to 32 µg/mL in test [4] (setting [9]); > 32 µg/mL in test [5] (setting [9]). Besides, the IC50 in test [6] and in test [7] was > 1 µM in each case.

For the molecule `CCN(C(C)Cc1ccc(-n2ccc(NC(=O)N3CCN(C(=O)C(C)(C)N)CC3)nc2=O)cc1)[C@H]1CC[C@H](N)C1` (some centres unmarked) [Compound 164], the MIC was 8 to 32 µg/mL in test [1] (setting [9]); > 32 µg/mL in test [2] (setting [9]); < 8 µg/mL in test [3] (setting [9]); < 8 µg/mL in test [4] (setting [9]); < 8 µg/mL in test [5] (setting [9]). In addition, the IC50 in test [6] is < 0.5 µM; in test [7], > 1 µM.

With `CC(Cc1ccc(-n2ccc(NC(=O)N3CCN(C(=O)C(C)(C)N)CC3)nc2=O)cc1)NCC1CNC1` (centres unmarked) [Compound 165], the MIC in test [1] (setting [9]) was > 32 µg/mL; in test [2] (setting [9]), > 32 µg/mL; in test [3] (setting [9]) it was 8 to 32 µg/mL; in test [4] (setting [9]), > 32 µg/mL; in test [5] (setting [9]), > 32 µg/mL. The IC50 in test [6] and in test [7] was > 1 µM throughout.

As to `CC(Cc1ccc(-n2ccc(NC(=O)N3CCN(C(=O)C(C)(C)N)CC3)nc2=O)cc1)N(C)CC1CNC1` (centres unmarked) [Compound 166], the MIC in test [1] (setting [9]) was > 32 µg/mL; in test [2] (setting [9]), > 32 µg/mL; in test [3] (setting [9]) it was 8 to 32 µg/mL; in test [4] (setting [9]), 8 to 32 µg/mL; in test [5] (setting [9]), > 32 µg/mL. Besides, the IC50 in test [6] and in test [7] was > 1 µM in each case.

As for `CCN(CC1CNC1)C(C)Cc1ccc(-n2ccc(NC(=O)N3CCN(C(=O)C(C)(C)N)CC3)nc2=O)cc1` (centres unmarked) [Compound 167], the MIC in test [1] (setting [9]) is > 32 µg/mL; in test [2] (setting [9]) it was > 32 µg/mL; in test [3] (setting [9]) it was < 8 µg/mL; in test [4] (setting [9]), 8 to 32 µg/mL; in test [5] (setting [9]), 8 to 32 µg/mL. Moreover, the IC50 in test [6] and in test [7] was > 1 µM in each case.

Regarding `CC(Cc1ccc(-n2ccc(NC(=O)N3CCN(C(=O)C(C)(C)N)CC3)nc2=O)cc1)N1CCC(N)CC1` (centres unmarked) [Compound 169], the MIC in test [1] (setting [9]) was 8 to 32 µg/mL; in test [2] (setting [9]), 8 to 32 µg/mL; in test [3] (setting [9]) it was < 8 µg/mL; in test [4] (setting [9]) it was < 8 µg/mL; in test [5] (setting [9]), < 8 µg/mL. The IC50 in test [6] is < 0.5 µM; in test [7], > 1 µM.

As for `CC(Cc1ccc(-n2ccc(NC(=O)N3CCN(C(=O)C(C)(C)N)CC3)nc2=O)cc1)N1CC[C@H](CN)C1` (some centres unmarked) [Compound 170], the minimum inhibitory concentration (MIC) is > 32 µg/mL in test [1] (setting [9]), < 8 µg/mL in test [3] (setting [9]) and 8 to 32 µg/mL in test [4] (setting [9]). Besides, the “Pa MIC + bicarb” value in test [2] (setting [9]) is “++ (An MIC value (μg/mL) that is 8 μg/mL or greater and less than 32 μg/mL)”. For the same molecule, the “Ef + bicarb MIC” value in test [5] (setting [9]) is given as “+ (An MIC value (μg/mL) that is 32 μg/mL or greater)”. The values for the IC50 in test [6] and in test [7] were < 0.5 µM and > 1 µM, respectively.

On to `CC(Cc1ccc(-n2ccc(NC(=O)N3CCN(C(=O)C(C)(C)N)CC3)nc2=O)cc1)N[C@H]1CC[C@H](N)CC1` (some centres unmarked) [Compound 171], for which the MIC in test [1] (setting [9]) is > 32 µg/mL; in test [2] (setting [9]), > 32 µg/mL; in test [3] (setting [9]) it was < 8 µg/mL; in test [4] (setting [9]) it was 8 to 32 µg/mL; in test [5] (setting [9]) it was > 32 µg/mL. Further, the IC50 in test [6] and in test [7] was > 1 µM in each case.

On to `CC(Cc1ccc(-n2ccc(NC(=O)N3CCN(C(=O)C(C)(C)N)CC3)nc2=O)cc1)N[C@@H]1CC[C@H](N)C1` (some centres unmarked) [Compound 172], for which the MIC is > 32 µg/mL in test [1] (setting [9]); > 32 µg/mL in test [2] (setting [9]); < 8 µg/mL in test [3] (setting [9]); < 8 µg/mL in test [4] (setting [9]); < 8 µg/mL in test [5] (setting [9]). The IC50 was < 0.5 µM in test [6] and > 1 µM in test [7].

Regarding `CC(Cc1ccc(-n2ccc(NC(=O)N3CCN(C(=O)C(C)(C)N)CC3)nc2=O)cc1)N[C@@H]1CC[C@@H](N)C1` (some centres unmarked) [Compound 173], the MIC in test [1] (setting [9]) is > 32 µg/mL; in test [2] (setting [9]), > 32 µg/mL; in test [3] (setting [9]), < 8 µg/mL; in test [4] (setting [9]), < 8 µg/mL; in test [5] (setting [9]), 8 to 32 µg/mL. Moreover, the IC50 is < 0.5 µM in test [6] and > 1 µM in test [7].

`CC(Cc1ccc(-n2ccc(NC(=O)N3CCN(C(=O)C(C)(C)N)CC3)nc2=O)cc1)N[C@H]1CC[C@@H](N)CC1` (some centres unmarked) [Compound 174]: the MIC in test [1] (setting [9]) was 8 to 32 µg/mL; in test [2] (setting [9]), > 32 µg/mL; in test [3] (setting [9]), < 8 µg/mL; in test [4] (setting [9]), < 8 µg/mL; in test [5] (setting [9]), < 8 µg/mL. In addition, the IC50 in test [6] was < 0.5 µM; in test [7] it was > 1 µM.

`CC(Cc1ccc(-n2ccc(NC(=O)N3CCN(C(=O)C(C)(C)N)CC3)nc2=O)cc1)N(C)[C@H]1CC[C@@H](N)CC1` (some centres unmarked) [Compound 175]: the minimal inhibitory concentration (MIC) in test [1] (setting [9]) was > 32 µg/mL; in test [3] (setting [9]) it was < 8 µg/mL; in test [4] (setting [9]), < 8 µg/mL; in test [5] (setting [9]) it was < 8 µg/mL. Further, in test [2] (setting [9]), the “Pa MIC + bicarb” value is “++ (An MIC value (μg/mL) that is 8 μg/mL or greater and less than 32 μg/mL)”. Moreover, the results for the IC50 in test [6] and in test [7] were < 0.5 µM and > 1 µM, respectively.

These data come from patent US12503452B2 (Curza Global, LLC, priority 2019, dated 2025).
